Test results from ChEMBL document CHEMBL2321853, “Novel acylethanolamide derivatives that modulate body weight through enhancement of hypothalamic pro-opiomelanocortin (POMC) and/or decreased neuropeptide Y (NPY)” (J Med Chem, 2013).
Active and inactive are the calls of the source. The rule behind the calls is not given here.

What was measured:
[1] = tested on: Mus musculus; experiment: Antiobesity activity in Sabra mouse assessed as change in body weight at 1 mg/kg, ip administered on day 8, 9, 10, 11, 14, 18, 24 and 32 measured on day 4 relative to control; format: functional; conditions: route intraperitoneal
[2] = tested on: Hypothalamus; experiment: Effect on FAAH gene expression in Sabra mouse hypothalamus assessed as change in mRNA level at 1 mg/kg, ip administered on day 8, 9, 10, 11, 14, 18, 24 and 32 by RT-PCR analysis relative to GAPDH; format: functional; conditions: route intraperitoneal
[3] = tested on: Hypothalamus; experiment: Effect on CAMKK2 gene expression in Sabra mouse hypothalamus assessed as change in mRNA level at 1 mg/kg, ip administered on day 8, 9, 10, 11, 14, 18, 24 and 32 by RT-PCR analysis relative to GAPDH; format: functional; conditions: route intraperitoneal
[4] = tested on: Hypothalamus; experiment: Effect on 5HT1A gene expression in Sabra mouse hypothalamus assessed as change in mRNA level at 1 mg/kg, ip administered on day 8, 9, 10, 11, 14, 18, 24 and 32 by RT-PCR analysis relative to GAPDH; format: functional; conditions: route intraperitoneal
[5] = tested on: Hypothalamus; experiment: Effect on CART gene expression in Sabra mouse hypothalamus assessed as change in mRNA level at 1 mg/kg, ip administered on day 8, 9, 10, 11, 14, 18, 24 and 32 by RT-PCR analysis relative to GAPDH; format: functional; conditions: route intraperitoneal
[6] = tested on: Hypothalamus; experiment: Effect on NPY gene expression in Sabra mouse hypothalamus assessed as change in mRNA level at 1 mg/kg, ip administered on day 8, 9, 10, 11, 14, 18, 24 and 32 by RT-PCR analysis relative to GAPDH; format: functional; conditions: route intraperitoneal
[7] = tested on: Hypothalamus; experiment: Effect on POMC gene expression in Sabra mouse hypothalamus assessed as change in mRNA level at 1 mg/kg, ip administered on day 8, 9, 10, 11, 14, 18, 24 and 32 by RT-PCR analysis relative to GAPDH; format: functional; conditions: route intraperitoneal
[8] = molecular target: Transient receptor potential cation channel subfamily V member 1 (Rattus norvegicus) (UniProt O35433); experiment: Displacement of [3H]resiniferatoxin from TRPV1 receptor in Wistar rat spinal cord at 10 uM relative to control
[9] = molecular target: T1, Fatty-acid amide hydrolase 1 (Rattus norvegicus) (UniProt P97612); experiment: Inhibition of rat brain FAAH using [3H]anandamide as substrate at 10 uM preincubated for 15 mins before substrate addition relative to control
T1 sequence (whole entry): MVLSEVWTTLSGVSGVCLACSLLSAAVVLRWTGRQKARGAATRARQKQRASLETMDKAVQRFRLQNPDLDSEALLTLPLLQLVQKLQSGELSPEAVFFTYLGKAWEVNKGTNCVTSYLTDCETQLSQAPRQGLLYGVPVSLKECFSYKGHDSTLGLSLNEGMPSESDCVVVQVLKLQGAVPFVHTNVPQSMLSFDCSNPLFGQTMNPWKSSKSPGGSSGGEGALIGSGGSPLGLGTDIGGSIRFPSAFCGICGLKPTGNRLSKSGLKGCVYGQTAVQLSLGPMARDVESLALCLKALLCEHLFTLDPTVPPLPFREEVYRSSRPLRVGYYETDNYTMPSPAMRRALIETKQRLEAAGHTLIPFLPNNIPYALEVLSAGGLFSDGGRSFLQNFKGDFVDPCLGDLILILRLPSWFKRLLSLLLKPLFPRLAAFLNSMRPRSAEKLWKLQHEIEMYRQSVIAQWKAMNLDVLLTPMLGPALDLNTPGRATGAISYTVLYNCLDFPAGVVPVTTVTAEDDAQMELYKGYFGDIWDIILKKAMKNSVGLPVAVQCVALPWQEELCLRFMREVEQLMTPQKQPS

[10] = molecular target: Cannabinoid receptor 2 (Homo sapiens) (UniProt P34972); experiment: Displacement of [3H]WIN-55,212-2 from human recombinant CB2 receptor expressed in CHO-K1 cells at 10 uM relative to control; format: cell-based
[11] = molecular target: Cannabinoid receptor 1 (Homo sapiens) (UniProt P21554); experiment: Displacement of [3H]SR141716A from human CB1 receptor expressed in rat Chem-1 cell membrane at 10 uM relative to control; format: cell membranes
[12] = molecular target: T2, Peroxisome proliferator-activated receptor alpha (Homo sapiens) (UniProt Q07869); experiment: Binding affinity to human recombinant PPARalpha expressed in Escherichia coli at 10 uM for 16 hrs by spectrofluorimetric analysis relative to control
T2 sequence (whole entry): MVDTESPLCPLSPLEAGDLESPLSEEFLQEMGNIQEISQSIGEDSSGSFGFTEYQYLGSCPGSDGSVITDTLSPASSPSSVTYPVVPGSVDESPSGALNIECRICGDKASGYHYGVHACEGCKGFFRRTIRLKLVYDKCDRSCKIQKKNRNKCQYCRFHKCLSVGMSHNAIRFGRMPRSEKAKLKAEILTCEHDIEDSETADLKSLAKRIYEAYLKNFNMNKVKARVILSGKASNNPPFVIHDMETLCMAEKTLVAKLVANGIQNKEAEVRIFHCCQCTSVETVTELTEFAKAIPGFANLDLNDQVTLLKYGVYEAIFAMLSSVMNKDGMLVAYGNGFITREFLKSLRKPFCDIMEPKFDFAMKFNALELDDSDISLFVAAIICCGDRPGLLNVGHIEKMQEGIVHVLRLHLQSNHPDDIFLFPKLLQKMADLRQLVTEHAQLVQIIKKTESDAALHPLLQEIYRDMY

[13] = tested on: Mus musculus; experiment: Antiobesity activity in Sabra mouse assessed as change in food consumption at 1 mg/kg, ip administered on day 8, 9, 10, 11, 14, 18, 24 and 32 measured after 6 weeks relative to control; format: functional; conditions: route intraperitoneal
[14] = tested on: Mus musculus; experiment: Antiobesity activity in Sabra mouse assessed as change in food consumption at 1 mg/kg, ip administered on day 8, 9, 10, 11, 14, 18, 24 and 32 measured after 5 weeks relative to control; format: functional; conditions: route intraperitoneal
[15] = tested on: Mus musculus; experiment: Antiobesity activity in Sabra mouse assessed as change in food consumption at 1 mg/kg, ip administered on day 8, 9, 10, 11, 14, 18, 24 and 32 measured after 3 weeks relative to control; format: functional; conditions: route intraperitoneal
[16] = tested on: Mus musculus; experiment: Antiobesity activity in Sabra mouse assessed as change in food consumption at 1 mg/kg, ip administered on day 8, 9, 10, 11, 14, 18, 24 and 32 measured after 4 weeks relative to control; format: functional; conditions: route intraperitoneal
[17] = tested on: Mus musculus; experiment: Antiobesity activity in Sabra mouse assessed as change in body weight at 1 mg/kg, ip administered on day 8, 9, 10, 11, 14, 18, 24 and 32 measured on day 35 relative to control; format: functional; conditions: route intraperitoneal
[18] = tested on: Mus musculus; experiment: Antiobesity activity in Sabra mouse assessed as change in body weight at 1 mg/kg, ip administered on day 8, 9, 10, 11, 14, 18, 24 and 32 measured on day 39 relative to control; format: functional; conditions: route intraperitoneal
[19] = tested on: Mus musculus; experiment: Antiobesity activity in Sabra mouse assessed as change in body weight at 1 mg/kg, ip administered on day 8, 9, 10, 11, 14, 18, 24 and 32 measured on day 30 relative to control; format: functional; conditions: route intraperitoneal
[20] = tested on: Mus musculus; experiment: Antiobesity activity in Sabra mouse assessed as change in body weight at 1 mg/kg, ip administered on day 8, 9, 10, 11, 14, 18, 24 and 32 measured on day 25 relative to control; format: functional; conditions: route intraperitoneal
[21] = tested on: Mus musculus; experiment: Antiobesity activity in Sabra mouse assessed as change in body weight at 1 mg/kg, ip administered on day 8, 9, 10, 11, 14, 18, 24 and 32 measured on day 14 relative to control; format: functional; conditions: route intraperitoneal
[22] = tested on: Mus musculus; experiment: Antiobesity activity in Sabra mouse assessed as change in body weight at 1 mg/kg, ip administered on day 8, 9, 10, 11, 14, 18, 24 and 32 measured on day 21 relative to control; format: functional; conditions: route intraperitoneal
[23] = tested on: Mus musculus; experiment: Antiobesity activity in Sabra mouse assessed as change in body weight at 1 mg/kg, ip administered on day 8, 9, 10, 11, 14, 18, 24 and 32 measured on day 9 relative to control; format: functional; conditions: route intraperitoneal
[24] = tested on: Mus musculus; experiment: Antiobesity activity in Sabra mouse assessed as change in food consumption at 1 mg/kg, ip administered on day 8, 9, 10, 11, 14, 18, 24 and 32 measured after 2 weeks relative to control; format: functional; conditions: route intraperitoneal
[25] = tested on: Mus musculus; experiment: Increase in motor activity Sabra mouse at 1 mg/kg, ip administered on day 8, 9, 10, 11, 14, 18, 24 and 32 measured on day 14 by open field test; format: functional, organism-based; parameters: dose 1 mg/kg

Sequence of Cannabinoid receptor 1 (Homo sapiens) (P21554 whole entry): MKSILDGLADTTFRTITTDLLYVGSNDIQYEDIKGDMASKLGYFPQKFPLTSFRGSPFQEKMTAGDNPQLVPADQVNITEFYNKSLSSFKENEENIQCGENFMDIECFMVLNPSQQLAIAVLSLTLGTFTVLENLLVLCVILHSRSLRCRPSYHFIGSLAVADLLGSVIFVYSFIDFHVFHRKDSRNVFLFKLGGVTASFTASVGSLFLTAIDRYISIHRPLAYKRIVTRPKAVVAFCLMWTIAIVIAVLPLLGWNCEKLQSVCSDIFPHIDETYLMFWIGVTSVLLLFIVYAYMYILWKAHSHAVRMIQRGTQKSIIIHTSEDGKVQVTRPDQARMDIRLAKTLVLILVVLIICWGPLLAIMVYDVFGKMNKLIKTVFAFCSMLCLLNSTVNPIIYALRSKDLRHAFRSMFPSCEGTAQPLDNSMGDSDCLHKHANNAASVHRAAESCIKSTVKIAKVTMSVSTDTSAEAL
Sequence of Transient receptor potential cation channel subfamily V member 1 (Rattus norvegicus) (O35433 whole entry): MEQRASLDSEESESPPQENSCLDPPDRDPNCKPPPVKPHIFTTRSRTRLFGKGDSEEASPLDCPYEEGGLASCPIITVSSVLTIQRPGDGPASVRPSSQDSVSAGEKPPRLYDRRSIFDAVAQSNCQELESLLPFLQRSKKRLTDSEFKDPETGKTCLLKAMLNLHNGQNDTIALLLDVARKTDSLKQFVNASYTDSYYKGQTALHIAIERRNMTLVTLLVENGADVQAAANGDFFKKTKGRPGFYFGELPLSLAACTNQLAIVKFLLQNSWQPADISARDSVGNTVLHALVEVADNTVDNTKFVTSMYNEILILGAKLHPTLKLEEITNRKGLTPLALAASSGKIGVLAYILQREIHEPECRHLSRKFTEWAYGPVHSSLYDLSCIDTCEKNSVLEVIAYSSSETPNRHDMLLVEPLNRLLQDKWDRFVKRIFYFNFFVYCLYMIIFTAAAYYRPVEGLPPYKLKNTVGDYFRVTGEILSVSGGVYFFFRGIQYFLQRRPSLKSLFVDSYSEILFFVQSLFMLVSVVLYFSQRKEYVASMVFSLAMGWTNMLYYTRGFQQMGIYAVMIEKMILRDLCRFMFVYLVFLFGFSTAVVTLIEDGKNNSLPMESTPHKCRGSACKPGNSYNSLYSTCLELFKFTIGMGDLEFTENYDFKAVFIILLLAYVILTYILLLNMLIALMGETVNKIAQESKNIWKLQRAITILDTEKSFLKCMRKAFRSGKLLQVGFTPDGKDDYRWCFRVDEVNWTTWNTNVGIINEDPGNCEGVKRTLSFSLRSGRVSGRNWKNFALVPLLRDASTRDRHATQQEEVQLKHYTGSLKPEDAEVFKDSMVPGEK
Sequence of Cannabinoid receptor 2 (Homo sapiens) (P34972 whole entry): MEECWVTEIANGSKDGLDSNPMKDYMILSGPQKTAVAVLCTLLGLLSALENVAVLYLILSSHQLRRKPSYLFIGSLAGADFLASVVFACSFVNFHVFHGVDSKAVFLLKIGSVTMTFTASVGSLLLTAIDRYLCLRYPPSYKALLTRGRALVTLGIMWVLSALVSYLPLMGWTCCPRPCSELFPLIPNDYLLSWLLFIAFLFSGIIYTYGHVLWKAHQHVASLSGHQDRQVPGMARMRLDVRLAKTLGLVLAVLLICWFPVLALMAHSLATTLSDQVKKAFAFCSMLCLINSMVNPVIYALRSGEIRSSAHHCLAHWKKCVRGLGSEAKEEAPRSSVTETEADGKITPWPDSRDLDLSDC

| Compound | Activity [1] [%] | Activity [2] [%] | Activity [3] [%] | Activity [4] [%] | Activity [5] [%] | Activity [6] [%] | Activity [7] [%] | inhibition [10] [%] | inhibition [11] [%] | Activity [12] [%] | Activity [13] [%] | Activity [14] [%] | Activity [15] [%] | Activity [16] [%] | Activity [17] [%] | Activity [18] [%] | Activity [19] [%] | Activity [20] [%] | Activity [21] [%] | Activity [22] [%] | also measured |
| --- | --- | --- | --- | --- | --- | --- | --- | --- | --- | --- | --- | --- | --- | --- | --- | --- | --- | --- | --- | --- | --- |
| CCCCCCCC/C=C/CCCCCCCC(=O)N[C@H](CO)C(C)C | 3.1 | 15 | 62 | -9 | -11 | 69 | 10 | 5 | 8 | 0 | 104.5 | 109.2 | 108.1 | 104.9 | 1.6 | 0 | 0.2 | 0.7 | 1 | -0.1 | inhibition [8]: 6%; inhibition [9]: 7%; Activity [23]: -0.1%; Activity [24]: 98.5% |
| CCCCCCCCCCCCCCCC(=O)N[C@H](CO)C(C)C | 1.9 | 15 | 15 | -1 | -13 | -52 | 2 | 0 | 21 | 2 | 81.4 | 97.4 | 96.8 | 85.9 | -8.5 | -6.7 | -7.1 | -4.9 | -2.2 | 3 | Activity [25]: inactive; Activity [23]: -2.1%; Activity [24]: 97% |
| CCCCCCCC/C=C/CCCCCCCC(=O)N[C@@H](CO)C(C)C | -2.3 | -46 | 8 | -18 | 25 | -9 | 5 | 0 | 7 | 0 | 109.1 | 111.4 | 112 | 108 | 1.4 | -1 | 0.2 | -1.1 | -0.3 | -1 | Activity [25]: inactive; inhibition [9]: 13%; Activity [23]: -1.7%; Activity [24]: 102.9% |
| CCCCCCCCCCCCCCCCCC(=O)N[C@H](CO)C(C)C | 2.1 | -26 | -14 | -16 | 2 | -39 | 43 | 6 | 6 | 0 | 82.5 | 100.5 | 93.8 | 85.7 | -7.8 | -6 | -5.8 | -5.3 | -1.4 | -1.8 | Activity [25]: inactive; inhibition [8]: -9%; inhibition [9]: 0%; Activity [23]: 0.9%; Activity [24]: 96% |
| CCCCCCCC/C=C\CCCCCCCC(=O)N[C@@H](CO)C(C)C | 0.4 | -28 | -2 | 17 | 44 | 8 | 31 | 5 | 36 | 0 | 77.3 | 80.6 | 78.1 | 81.8 | -6 | -6.7 | -4.7 | -3.3 | -3.1 | -1.7 | Activity [25]: Active; inhibition [8]: 3%; inhibition [9]: 8%; Activity [23]: -0.8%; Activity [24]: 79.4% |
